≈ marks a conversion by molar mass, not a printed value.
Tests used:
[1] = system: Bacillus subtilis ATCC 6633; assay: Antimicrobial activity, agar dilution; format: cell-based; conditions: ATCC6633, 20 h, Agar Dextrose dilutions, 37°C, 20 heures, read-out: Activité pharmacologique antimicrobienne (concentrations)
From the text: (§1) L'activité pharmacologique antimicrobienne de ces composés a été étudiée selon les références exposées ci-dessous.
(§2) Activité pharmacologique antimicrobienne : G.L. Daquet et Y.A. Chabbect, techniques en bactériologie, Vol. 3, Flammarion Médecine-Sciences, Paris 1972, et W.B. Hugo et A.D. Rusell, Pharmaceutical Microbiology, Blackwell Scientific Publications, London, 1977.
(§3) Milieu de culture et solvant : Agar d'antibiotiques n° 1 (Oxoid CM 327) Bouillon de triptone-soja (Oxoid CM 129) Solution Physiologique Ringer 1/4 (Oxoid BR 52) Agar Dextrose (BBL 11165)
(§4) Microorganismes : "Bacillus subtilis" ATCC 6633 "Citrobacter freundii" ATCC 112606 "Enterobacter aerogenes" ATCC 15038 "Enterobacter cloacae" ATCC 23355 "Bacillus cereus" ATCC 1178 "Escherichia coli" ATCC 10799 "Escherichia coli" ATCC 23559 "Klebsiella pneumoniae" ATCC 10031 "Proteus vulgaris" ATCC 8427 "Morg. morganii" ATCC 8019 "Pseudomonas aeruginosa" ATCC 9721 "Pseudomonas aeruginosa" ATCC 10145 "Salmonella typhimurium" ATCC 14028 "Salmonella typhimurium" ATCC 6539 "Serratia marcescens" ATCC 13880 "Shigella flexnerii" ATCC 12022 "Staphylococcusepidermis" ATCC 155-1 "Staphylococcus aureus" ATCC 25178 "Streptococcus faecalis" ATCC 10541.
(§5) Chacun des microorganismes est ensemencé par strie dans des tubes d'Agar d'antibiotiques n° 1, et mis en incubation pendant 20 heures à 37°C. Ensuite, on prend une anse de culture, on ensemence dans un bouillon de Triptone-soja et on incube pendant 20 heures à 37°C. On dilue à 1/4 la culture obtenue avec une solution physiologique Ringer, de façon à obtenir une suspension normalisée de […] pour chaque organisme.
(§6) A partir d'une solution de 100 µg/ml, chaque produit est dilué dans l'Agar Dextrose (préalablement fondu et maintenu à 50°C) par dilutions successives de façon à obtenir les concentrations suivantes : 64-32-16-8-4-2-1-0,5-0,25-0,125 µg de dérivé/ml du milieu.
(§7) Postérieurement, chaque concentration de chaque produit est répartie dans des boîtes de Petri de 10 cm de diamètre, à raison de 10 ml de milieu par boîte et autant de boîtes que de microorganismes à tester.
(§8) Une fois le milieu refroidi, les boîtes sont ensemencées avec les inoculations à raison de 0,4 ml d'inoculation par boîte. On les étend avec une anse de Driglasky et on recueille le surnageant. Les boîtes ensemencées sont incubées à 37°C pendant 20 heures.
(§9) Les résultats obtenus sont décrits dans les tableaux suivants. Les concentrations sont données en µg/ml.

[2] = system: Escherichia coli ATCC 10799; assay: Antimicrobial activity, agar dilution; format: cell-based; conditions: Escherichia coli, ATCC10799, 20 h, Agar Dextrose dilutions, 37°C, 20 heures, read-out: Activité pharmacologique antimicrobienne (concentrations)
From the text: as §1, §2, §3, §4, §5, §6, §7, §8, §9

[3] = system: Staph. epidermidis ATCC 155-1; assay: Antimicrobial activity, agar dilution; format: cell-based; conditions: Staphylococcus epidermidis, ATCC155, 20 h, Agar Dextrose dilutions, 37°C, 20 heures, read-out: Activité pharmacologique antimicrobienne (concentrations)
From the text: as §1, §2, §3, §4, §5, §6, §7, §8, §9

[4] = system: Ps. aeruginosa ATCC 10145; assay: Antimicrobial activity, agar dilution; format: cell-based; conditions: Pseudomonas aeruginosa, ATCC10145, 20 h, Agar Dextrose dilutions, 37°C, 20 heures, read-out: Activité pharmacologique antimicrobienne (concentrations)
From the text: as §1, §2, §3, §4, §5, §6, §7, §8, §9

[5] = system: Proteus vulgaris ATCC 8427; assay: Antimicrobial activity, agar dilution; format: cell-based; conditions: Proteus vulgaris, ATCC8427, 20 h, Agar Dextrose dilutions, 37°C, 20 heures, read-out: Activité pharmacologique antimicrobienne (concentrations)
From the text: as §1, §2, §3, §4, §5, §6, §7, §8, §9

[6] = system: Bacillus cereus ATCC 11778; assay: Antimicrobial activity, agar dilution; format: cell-based; conditions: Bacillus cereus, ATCC11778, 20 h, Agar Dextrose dilutions, 37°C, 20 heures, read-out: Activité pharmacologique antimicrobienne (concentrations)
From the text: as §1, §2, §3, §4, §5, §6, §7, §8, §9

[7] = system: Escherichia coli ATCC 23559; assay: Antimicrobial activity, agar dilution; format: cell-based; conditions: Escherichia coli, ATCC23559, 20 h, Agar Dextrose dilutions, 37°C, 20 heures, read-out: Activité pharmacologique antimicrobienne (concentrations)
From the text: as §1, §2, §3, §4, §5, §6, §7, §8, §9

Morg. morganii ATCC 8019 = assay: Antimicrobial activity, agar dilution; format: cell-based; conditions: Morganella morganii, ATCC8019, 20 h, Agar Dextrose dilutions, 37°C, 20 heures, read-out: Activité pharmacologique antimicrobienne (concentrations)
From the text: as §1, §2, §3, §4, §5, §6, §7, §8, §9

[8] = system: Shigella flexnerii ATCC 12022; assay: Antimicrobial activity, agar dilution; format: cell-based; conditions: ATCC12022, 20 h, Agar Dextrose dilutions, 37°C, 20 heures, read-out: Activité pharmacologique antimicrobienne (concentrations)
From the text: as §1, §2, §3, §4, §5, §6, §7, §8, §9

Ps. aeruginosa ATCC 9721 = assay: Antimicrobial activity, agar dilution; format: cell-based; conditions: Pseudomonas aeruginosa, ATCC9721, 20 h, Agar Dextrose dilutions, 37°C, 20 heures, read-out: Activité pharmacologique antimicrobienne (concentrations)
From the text: as §1, §2, §3, §4, §5, §6, §7, §8, §9

Sal. typhi ATCC 6539 = assay: Antimicrobial activity, agar dilution; format: cell-based; conditions: Salmonella enterica, 20 h, read-out: Activité pharmacologique antimicrobienne (concentrations)
From the text: as §1, §2, §3, §4, §5, §6, §7, §8, §9

[9] = system: Ent. aerogenes ATCC 15038; assay: Antimicrobial activity, agar dilution; format: cell-based, Enterobacter aerogenes; conditions: Klebsiella aerogenes, ATCC15038, 20 h, Agar Dextrose dilutions, 37°C, 20 heures, read-out: Activité pharmacologique antimicrobienne (concentrations)
From the text: as §1, §2, §3, §4, §5, §6, §7, §8, §9

[10] = system: Serr. marcescens ATCC 13880; assay: Antimicrobial activity, agar dilution; format: cell-based, Serratia marcescens; conditions: Serratia marcescens, ATCC13880, 20 h, Agar Dextrose dilutions, 37°C, 20 heures, read-out: Activité pharmacologique antimicrobienne (concentrations)
From the text: as §1, §2, §3, §4, §5, §6, §7, §8, §9

[11] = system: Citr. freundii ATCC 11606; assay: Antimicrobial activity, agar dilution; format: cell-based, Citrobacter freundii; conditions: Citrobacter freundii, ATCC11606, 20 h, Agar Dextrose dilutions, 37°C, 20 heures, read-out: Activité pharmacologique antimicrobienne (concentrations)
From the text: as §1, §2, §3, §4, §5, §6, §7, §8, §9

Staph. aureus ATCC 25178 = assay: Antimicrobial activity, agar dilution; format: cell-based, Staphylococcus aureus; conditions: Staphylococcus aureus, ATCC25178, 20 h, Agar Dextrose dilutions, 37°C, 20 heures, read-out: Activité pharmacologique antimicrobienne (concentrations)
From the text: as §1, §2, §3, §4, §5, §6, §7, §8, §9

Ent. cloacae ATCC 23355 = assay: Antimicrobial activity, agar dilution; format: cell-based, Enterobacter cloacae; conditions: Enterobacter cloacae, ATCC23355, 20 h, Agar Dextrose dilutions, 37°C, 20 heures, read-out: Activité pharmacologique antimicrobienne (concentrations)
From the text: as §1, §2, §3, §4, §5, §6, §7, §8, §9

[12] = Solubility in water and at pH 7.4; format: physicochemical
From the text: Un grand nombre des composés de l'invention manifestent une augmentation de la solubilité dans l'eau ainsi que de la solubilité à pH 7,4 lorsqu'on compare avec les composés de référence. L'augmentation de solubilité au pH physiologique peut favoriser l'absorption du produit et la solubilité élevée dans l'eau permet l'administration du composé par voie parentérale.

[13] = system: Kleb. pneumoniae ATCC 10031; assay: Antimicrobial activity, agar dilution; format: cell-based, Klebsiella pneumoniae; conditions: Klebsiella pneumoniae, ATCC10031, 20 h, Agar Dextrose dilutions, 37°C, 20 heures, read-out: Activité pharmacologique antimicrobienne (concentrations)
From the text: as §1, §2, §3, §4, §5, §6, §7, §8, §9

[14] = system: Sal. typhimurium ATCC 14028; assay: Antimicrobial activity, agar dilution; format: cell-based, Salmonella typhimurium; conditions: Salmonella enterica, 20 h, Agar Dextrose dilutions, 37°C, 20 heures, read-out: Activité pharmacologique antimicrobienne (concentrations)
From the text: as §1, §2, §3, §4, §5, §6, §7, §8, §9

[15] = system: Strep. faecalis ATCC 10541; assay: Antimicrobial activity, agar dilution; format: cell-based, Streptococcus faecalis; conditions: Enterococcus faecalis, ATCC10541, 20 h, Agar Dextrose dilutions, 37°C, 20 heures, read-out: Activité pharmacologique antimicrobienne (concentrations)
From the text: as §1, §2, §3, §4, §5, §6, §7, §8, §9

## C[C@@H]1[C@@H](NC(=O)[C@@H](C)N)CN1c1nc2c(cc1F)c(=O)c(C(=O)O)cn2C1CC1 [Exemple 4fa]
[1]
  MIC: 0.5 µg/mL (≈ 1.24 µM)
[2]
  MIC: 4 µg/mL (≈ 9.92 µM)
[3]
  MIC: 0.25 µg/mL (≈ 0.62 µM)
[4]
  MIC: > 16 µg/mL
[5]
  MIC: 8 µg/mL (≈ 19.8 µM)
[6]
  MIC: 1 µg/mL (≈ 2.48 µM)
[7]
  MIC: 1 µg/mL (≈ 2.48 µM)
Morg. morganii ATCC 8019
  MIC: 8 µg/mL (≈ 19.8 µM)
[8]
  MIC: 1 µg/mL (≈ 2.48 µM)
Ps. aeruginosa ATCC 9721
  MIC: > 16 µg/mL
Sal. typhi ATCC 6539
  MIC: 4 µg/mL (≈ 9.92 µM)
[9]
  MIC: 4 µg/mL (≈ 9.92 µM)
[10]
  MIC: 16 µg/mL (≈ 39.7 µM)
[11]
  MIC: 4 µg/mL (≈ 9.92 µM)
Staph. aureus ATCC 25178
  MIC: 1 µg/mL (≈ 2.48 µM)
Ent. cloacae ATCC 23355
  MIC: 4 µg/mL (≈ 9.92 µM)
[12]; pH 7
  solubility: > 500 µg/mL
[12]; water
  solubility: > 500 µg/mL
[13]
  MIC: 8 µg/mL (≈ 19.8 µM)
[14]
  MIC: 4 µg/mL (≈ 9.92 µM)
[15]
  MIC: 1 µg/mL (≈ 2.48 µM)
